Structures can show the parent of a compound that is named as a salt. Where two headings read alike, the source gives them in different places.
Columns and labels:
in vitro = details: rat, gh3-tre-luc cells, AC50 (uM) modified / 1000
GH3-TRE-Luc cell line = details: read-out: AC50 (uM) modified / 1000, viability, 1 nM T3 present, 24 h

SMILES: CC(C)(C)CC(C)(C)c1ccc(O)cc1 [4-(1,1,3,3-Tetramethylbutyl)phenol]
- CC50 at 24 h (in vitro): 35.1 µM
- CC50 (GH3-TRE-Luc cell line; Tox21_110001=Tox21_112084): 22.4 µM

SMILES: c1cc(N(CC2CO2)CC2CO2)ccc1OCC1CO1 (stereo not drawn) [4-(Diglycidylamino)phenyl glycidyl ether]
- CC50 at 24 h (in vitro): 30.4 µM
- CC50 (GH3-TRE-Luc cell line; Tox21_110001=Tox21_302646): 25.4 µM

SMILES: Nc1ccc(O)cc1 [4-Aminophenol]
- CC50 at 24 h (in vitro): 16.6 µM
- CC50 (GH3-TRE-Luc cell line; Tox21_110001=Tox21_113242): 9.32 µM
- CC50 (GH3-TRE-Luc cell line; Tox21_110001=Tox21_201030): 17.1 µM

SMILES: Nc1ccc(Cl)cc1N [4-Chloro-1,2-diaminobenzene]
- CC50 at 24 h (in vitro): 73 µM
- CC50 (GH3-TRE-Luc cell line; Tox21_110001=Tox21_400037): > 90 µM

SMILES: CC(C)(c1ccccc1)c1ccc(O)cc1 [4-Cumylphenol]
- CC50 at 24 h (in vitro): 45.2 µM
- CC50 (GH3-TRE-Luc cell line; Tox21_110001=Tox21_300056): 51 µM

SMILES: CCCCCCc1ccc(O)cc1O [4-Hexylresorcinol]
- CC50 at 24 h (in vitro): 61 µM
- CC50 (GH3-TRE-Luc cell line; Tox21_110001=Tox21_300357): 56.7 µM

SMILES: CC1=C(/C=C/C(C)=C/C=C/C(C)=C/C(=O)Nc2ccc(O)cc2)C(C)(C)CCC1 [4-Hydroxyphenyl retinamide]
- CC50 at 24 h (in vitro): 10 µM
- CC50 (GH3-TRE-Luc cell line; Tox21_110001=Tox21_111007): 6.39 µM

SMILES: Nc1ccc([N+](=O)[O-])cc1N [4-Nitro-1,2-phenylenediamine]
- CC50 at 24 h (in vitro): 21.8 µM
- CC50 (GH3-TRE-Luc cell line; Tox21_110001=Tox21_302811): 26.4 µM

SMILES: O=[N+]([O-])c1ccc(Nc2ccccc2)cc1 [4-Nitro-N-phenylaniline]
- CC50 at 24 h (in vitro): 45.4 µM
- CC50 (GH3-TRE-Luc cell line; Tox21_110001=Tox21_303333): 76.1 µM

SMILES: O=Nc1ccc(Nc2ccccc2)cc1 [4-Nitrosodiphenylamine]
- CC50 at 24 h (in vitro): 8.75 µM
- CC50 (GH3-TRE-Luc cell line; Tox21_110001=Tox21_302822): 14.9 µM

SMILES: CCCCCCCCCc1ccc(O)cc1 [4-Nonylphenol]
- CC50 at 24 h (in vitro): 41.5 µM
- CC50 (GH3-TRE-Luc cell line; Tox21_110001=Tox21_303647): 42.8 µM

SMILES: CC(C)(C)c1ccc(O)c(O)c1 [4-tert-Butylcatechol]
- CC50 at 24 h (in vitro): 43 µM
- CC50 (GH3-TRE-Luc cell line; Tox21_110001=Tox21_400003): 49.3 µM

SMILES: Oc1ccc2cc(SSc3ccc4cc(O)ccc4c3)ccc2c1 [6-Hydroxy-2-naphthyl disulfide]
- CC50 at 24 h (in vitro): > 90 µM
- CC50 (GH3-TRE-Luc cell line; Tox21_110001=Tox21_303354): 81.2 µM

SMILES: O=C(O[C@@H]1Cc2c(O)cc(O)cc2O[C@@H]1c1cc(O)c(O)c(O)c1)c1cc(O)c(O)c(O)c1 [(-)-Epigallocatechin gallate]
- CC50 at 24 h (in vitro): 48.4 µM
- CC50 (GH3-TRE-Luc cell line; Tox21_110001=Tox21_303457): 50.7 µM

SMILES: CCCCC/C=C/C=C/C=O [(E,E)-2,4-Decadienal]
- CC50 at 24 h (in vitro): > 90 µM
- CC50 (GH3-TRE-Luc cell line; Tox21_110001=Tox21_303165): 70.3 µM

SMILES: CCc1cccc(CC)c1N(COC)C(=O)CCl [Alachlor]
- CC50 at 24 h (in vitro): > 90 µM
- CC50 (GH3-TRE-Luc cell line; Tox21_110001=Tox21_300713): 78.7 µM

SMILES: Cc1ccc(/N=C/N(C)/C=N/c2ccc(C)cc2C)c(C)c1 [Amitraz]
- CC50 at 24 h (in vitro): 59 µM
- CC50 (GH3-TRE-Luc cell line; Tox21_110001=Tox21_300930): 62.8 µM

SMILES: O=c1cc(-c2ccc(O)cc2)oc2cc(O)cc(O)c12 [Apigenin]
- CC50 at 24 h (in vitro): 42.3 µM
- CC50 (GH3-TRE-Luc cell line; Tox21_110001=Tox21_302884): 77.9 µM

SMILES: CN1CCc2cccc3c2[C@H]1Cc1ccc(O)c(O)c1-3 [Apomorphine hydrochloride hydrate]
- CC50 at 24 h (in vitro): 48.2 µM
- CC50 (GH3-TRE-Luc cell line; Tox21_110001=Tox21_303480): 26.7 µM

Source: PMC6792352, “Limited Chemical Structural Diversity Found to Modulate Thyroid Hormone Receptor in the Tox21 Chemical Library” (Environmental Health Perspectives, 2019)
